Experiments:
aged chicken juice [1] = test: Comparative dyes dropped onto aged chicken juice on paper towel; conditions: aged chicken juice on SCOTT paper towel
[2] = Reichardt's dye and TMB coated towel exposed to dilute bleach; conditions: towel coated with mixture of Reichardt's dye and TMB
[3] = system: aged urine (approximately 1x10^5 CFU/milliliters); test: N-methyl merocyanine coated towel exposed to aged female human urine; conditions: aged urine filtered through 0.2-micron filter
budgie feces suspension = test: N-methyl merocyanine coated towel exposed to budgerigar feces suspension; conditions: tap water control
Text: Budgerigar feces was collected from a caged pet budgie, and shaken in approximately 10 milliliters of Atlanta city domestic tap water.

aged chicken juice [4] = test: N-docosyl merocyanine dye on cotton fabric spotted with aged chicken juice

Row | SMILES | Color change on dropping dye onto aged chicken juice (aged chicken juice [1]) | also measured
1 | CC(=O)Nc1ccc(/N=N/c2c(N)ccc3cc(S(=O)(=O)[O-])cc(O)c23)c(S(=O)(=O)[O-])c1.[Na+].[Na+] [Acid Red 37] | No color changes were observed | –
2 | O=C([O-])C1=NN(c2ccc(S(=O)(=O)[O-])cc2)C(=O)C1N=Nc1ccc(S(=O)(=O)[O-])cc1.[Na+].[Na+].[Na+] (centres unmarked) [Acid Yellow 23] | No color changes were observed | –
3 | O=C1/C(=C2\Nc3ccc(S(=O)(=O)[O-])cc3C2=O)Nc2ccc(S(=O)(=O)[O-])cc21.[Na+].[Na+] [Cl Acid Blue 74] | No color changes were observed | –
4 | Cc1cc(-c2cc(C)c(N)c(C)c2)cc(C)c1N [TMB] | – | Color response to dilute bleach solution [2]: turning orange/yellow color
5 | COc1cc(/C=C/c2cc[n+](C)cc2)ccc1[O-] [N-methyl merocyanine dye] | – | Color change of coated towel [3]: did not cause a color change; Color change of coated towel (budgie feces suspension): remained orange
6 | Cc1ccc(Nc2ccc(Nc3ccc(C)cc3S(=O)(=O)[O-])c3c2C(=O)c2ccccc2C3=O)c(S(=O)(=O)[O-])c1.[Na+].[Na+] [Cl Acid Green 25] | No color changes were observed | –
7 | Cc1ccc(Nc2ccc(Nc3ccc(C)cc3S(=O)(=O)[O-])c3c2C(=O)c2c(O)ccc(O)c2C3=O)c(S(=O)(=O)[O-])c1.[Na+].[Na+] [Cl Acid Green 41] | No color changes were observed | –
8 | CCCCCCCCCCCCCCCCCCCCCC[n+]1ccc(C=Cc2ccc(O)cc2)cc1.[Br-] | – | Color change on spotting aged chicken juice (aged chicken juice [4]; orange-yellow dye spots on cotton fabric): color change to very pale yellow; Color change on spotting aged chicken juice (aged chicken juice [4]; pinkish-orange areas (dye + NaOH soln.)): pinkish-orange to very pale yellow
9 | CCN(CC)c1ccc2c(-c3ccc(S(=O)(=O)[O-])cc3S(=O)(=O)[O-])c3ccc(=[N+](CC)CC)cc-3oc2c1.[Na+] [Cl Acid Red 52] | No color changes were observed | –
